Entries after “also recorded” stand apart in the source; their conditions may differ.
What was measured:
misfolded Aβ dimers [1] = assay: Single-molecule AFM force spectroscopy: rupture force of Aβ dimers; format: binding, human
Method: The cysteinyl−peptides were covalently immobilized on the tip and the surface via flexible tethers terminated with maleimide groups. […] Peptide aggregation was minimized by using a very low peptide concentration (20 nM) during the coupling reaction with the functionalized mica surface and the tips. Probing was performed by multiple approach−retraction cycles over various spots of the mica surface.
Figures 1−b1 and 1−b2 show typical force curves for non−specific and specific interactions, respectively. Specific rupture events were characterized by the appearance of the event indicated with an arrow in Fig. 1−b2. The rupture peak appears at the distance defined by the extension of the flexible linkers (polyethylene glycol, PEG and maleimide silatrane, MAS) and the segments of the peptides not involved in dimer formation (see Supplementary Methods for specifics). The force−distance curves, as shown in Fig. 1−b2, were analyzed with worm−like chain (WLC) fitting to extract parameters including the rupture force and the contour length. […] The measurements for the [VPV]Aβ40 mutant performed at similar conditions (ionic strength, loading rate, etc.) are shown in Fig. 1d. […] The rupture forces increase with increasing apparent loading rates (Supplementary Fig. S1).
All cysteinyl−Aβ peptides were synthesized using 9−fluorenylmethoxycarbonyl (FMOC) chemistry and purified by reverse phase high performance liquid chromatography (RP−HPLC). The identity and purity (usually > 97%) of the peptides were confirmed by amino acid analysis followed by mass spectrometry and RP−HPLC. Functionalization of AFM tips and mica substrates were prepared according to previously published procedures. Briefly, 20 nM Aβ monomers were immobilized on mica functionalized with aminopropyl silatrane (APS) via PEG 3400 tethers and on AFM tips through maleimide silatrane (MAS). For DFS study, the tip retraction speeds ranged from 100 nm/s to 4000 nm/s. The dwell time was set at 0.3 s when retraction speed reached 1000 nm/s and above. Force curves with rupture event were subject to WLC analysis, as shown below. [drawing 1] Rupture force distributions were fitted with a probability density function: [drawing 2] Dynamic force spectra were fitted with Bell−Evans model[21]: [drawing 3] The energy profiles were reconstructed according to previous papers, using the equation below. [drawing 4] Positions of interacting segments of Aβ monomers within dimers were estimated by subtracting from the measured contour lengths the lengths of all linkers and the distance between N−termini of monomers (see Fig. 1a). The contour length of PEG was estimated with the following equation[28]: [drawing 5] Where Lc(F) is the contour length, Ns is the average number of monomers, Lplanar is the length of monomers with planar conformation, Lhelical is the length of monomers with helical conformation, ΔG(F) is the free energy difference at zero appling force. The Ns is 77 ± 10 for 3400 Da PEG. The Lplanar and Lhelical are 3.58 Å and 2.8 Å, respectively. The ΔG(F) is fixed at 3 kBT. The contour length of PEG was thus estimated to be 22.0 ± 0.9 nm. All error bars represent SEM. Detailed methods can be found in Supplementary Information.
A 50 mM 1−(3−aminopropyl) silatrane (APS) stock solution was prepared by dissolving the APS powder in deionized (DI) water. The 1.67 mM stock solution of maleimide−polyethylene glycol−succinimidyl valerate (MAL−PEG−SVA; 3.4 kDa Laysan Bio Inc, Arab, AL) was prepared in DMSO (Sigma−Aldrich Inc.) and stored at −20°C. The 10 mM Tris (2−carboxyethyl) phosphine (TCEP) hydrochloride (Hampton Research Inc.) and the 2.94 mM solution of maleimide silatrane (MAS) were prepared in DI water and stored at −20°C. A 10 mM stock solution of β−mercaptoethanol was prepared in 10 mM sodium phosphate, pH 7.4 (“phosphate buffer”) and kept at 4°C. Unless otherwise specified, other reagents used in the experiments were of analytical grade from Sigma−Aldrich. […]

misfolded Aβ dimers [2] = assay: Contour length analysis of interacting segments within Aβ dimers; format: binding, human; conditions: contour length profiles, Fig. 5
Text: We used the contour length measurements to identify segments of the peptides involved in dimer formation. The measured contour length is comprised of the length of the flexible tethers used for peptide immobilization and the length of the segment of the peptide from the anchoring point to the rupture position. The latter, according to the schematic in Fig. 1, was obtained by subtracting the lengths of all linkers from the measured contour lengths.
Probing interactions of Aβ peptides within a dimer by SMFS provides a pattern of peptide interactions within the dimers. According to the immobilization procedure, the peptide is covalently bound at its N−terminal cysteine. The experimentally measured contour length consists of two major components, the lengths of the flexible tethers used for peptide immobilization and the length of the peptide segment between the N−terminus and the segment of the peptide involved in interpeptide interactions. Therefore, the position of the peak on the force−distance curve is defined by the peptide length between the N−terminus and the interacting segment. […] The closer the interacting segment is to the N−terminus, the shorter the contour length will be when measured by AFM. […] The contour length of PEG 3400 was estimated to be 22.0 ± 0.9 nm[28]. Lengths of both aminopropyl silatrane (APS) and MAS were ~ 2.5 nm[13]. Therefore, the total length of all linkers was 24.5 ± 0.9 nm. In addition, the distance between N−termini of two peptides was estimated to be 1.0 nm.
All cysteinyl−Aβ peptides were synthesized using 9−fluorenylmethoxycarbonyl (FMOC) chemistry and purified by reverse phase high performance liquid chromatography (RP−HPLC). The identity and purity (usually > 97%) of the peptides were confirmed by amino acid analysis followed by mass spectrometry and RP−HPLC. Functionalization of AFM tips and mica substrates were prepared according to previously published procedures. Briefly, 20 nM Aβ monomers were immobilized on mica functionalized with aminopropyl silatrane (APS) via PEG 3400 tethers and on AFM tips through maleimide silatrane (MAS). For DFS study, the tip retraction speeds ranged from 100 nm/s to 4000 nm/s. The dwell time was set at 0.3 s when retraction speed reached 1000 nm/s and above. Force curves with rupture event were subject to WLC analysis, as shown below. [drawing 1] Rupture force distributions were fitted with a probability density function: [drawing 2] Dynamic force spectra were fitted with Bell−Evans model[21]: [drawing 3] […] Positions of interacting segments of Aβ monomers within dimers were estimated by subtracting from the measured contour lengths the lengths of all linkers and the distance between N−termini of monomers (see Fig. 1a). […]

[3] = loading rates of 5000−7000 pN/s, ± SEM, total data 170 (Aβ40), 280 ([VPV]Aβ40)
[4] = Supplementary Figs. S3b-S5b, similar analysis, loading rate not given

Row | Substance | most probable rupture force (misfolded Aβ dimers [1]; loading rate 6215 pN/s, probability density function fit) [pN] | most probable rupture force (misfolded Aβ dimers [1]; [3]) [pN] | most probable rupture force (misfolded Aβ dimers [1]; loading rates of 5000−7000 pN/s, ± SEM, total data 170 (Aβ40), 280 ([VPV]Aβ40), listed as Αβ40) [pN] | rupture force alignment in the force versus contour length plot (misfolded Aβ dimers [1]; scatter plot Fig. 3c, horizontal line, loading rates of 5000−7000 pN/s) | predominant interpeptide interaction pattern in dimer (misfolded Aβ dimers [2]) | most probable rupture force (misfolded Aβ dimers [1]; [4]) [pN] | most probable rupture force, increase vs Αβ40 dimers (misfolded Aβ dimers [1]; [VPV]Αβ40 vs Αβ40 (79.3 vs 63.4 pN), loading rates of 5000−7000 pN/s) [%] | most probable rupture force (misfolded Aβ dimers [1]; loading rate 6068 pN/s, probability density function fit) [pN] | most probable rupture force (misfolded Aβ dimers [1]; loading rates of 5000−7000 pN/s, ± SEM, total data 170 (Aβ40), 280 ([VPV]Aβ40), listed as [VPV]Αβ40) [pN]
1 | Aβ40: alloform of human amyloid β−protein; cysteinyl−Aβ peptide, Cys residue placed at the N−terminus | 57.0 | 63.4 ± 3.2 | 63.4 | ~ 60 pN | primary interactions that occur via the N−termini; also recorded: predominate contribution of N−terminal interactions |  |  |  | 
2 | Aβ42: alloform of human amyloid β−protein with two additional C−terminal residues; cysteinyl−peptide |  |  |  |  | interactions within the C−terminus | 66.2 ± 0.8 |  |  | 
3 | [VPV]Aβ40: Aβ40 mutant with VPV substitutions (Gly33Val−Val36Pro−Gly38Val); cysteinyl−peptide |  | 79.3 ± 1.5 |  |  | increased interactions between the central and C−terminal segments |  | 25 | 83.6 | 79.3
4 | [VPV]Aβ42: Aβ42 with VPV substitutions (Gly33Val−Val36Pro−Gly38Val); cysteinyl−peptide |  |  |  |  | interactions within the central segments | 67.9 ± 1.0 |  |  | 
